Source: patent publication US10167272B2, “Muscarinic agonists” (Heptares Therapeutics Limited, priority 2015, dated 2019)
Like-named read-outs stand apart in the source and are kept apart here.

How the values were obtained:
[1] = target: T1, human muscarinic M1 receptor (Homo sapiens, UniProt P11229); assay: Alphascreen Surefire phospho-ERK1/2 functional assay, M1; format: cell-based; details: phospho-ERK1/2; for EC50 / % Emax cf. ACh (M1): CHO cells stably expressing human M1; for EC50: read-out: pEC50 M1 (converted); for Emax: CHO, read-out: % Emax cf. ACh (M1), CHO cells stably expressing human M1; for Emax / % Emax cf. ACh (M1): relative to ACh
T1 sequence (P11229 1-460): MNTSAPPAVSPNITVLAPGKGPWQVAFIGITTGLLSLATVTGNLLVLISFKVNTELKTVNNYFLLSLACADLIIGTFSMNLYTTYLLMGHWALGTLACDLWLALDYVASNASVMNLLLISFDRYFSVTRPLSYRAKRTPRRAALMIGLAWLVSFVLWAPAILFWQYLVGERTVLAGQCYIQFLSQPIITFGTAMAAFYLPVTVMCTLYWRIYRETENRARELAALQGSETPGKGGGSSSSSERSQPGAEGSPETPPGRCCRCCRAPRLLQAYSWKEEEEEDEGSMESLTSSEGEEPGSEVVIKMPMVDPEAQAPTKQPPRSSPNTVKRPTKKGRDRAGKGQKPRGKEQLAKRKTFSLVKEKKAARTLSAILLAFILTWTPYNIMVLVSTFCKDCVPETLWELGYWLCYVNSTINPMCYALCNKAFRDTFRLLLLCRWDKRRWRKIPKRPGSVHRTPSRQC
Method in brief: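 CHO cells stably expressing human M1, M2 or M3 receptor, serum-starved overnight, were stimulated with agonist for 5 min at 37 °C. Cells were then lysed and ERK1/2 phosphorylation detected by AlphaScreen SureFire.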

[2] = target: T2, human muscarinic M4 receptor (Homo sapiens, UniProt P08173); assay: Alphascreen Surefire phospho-ERK1/2 functional assay, M4; format: cell-based; details: for Emax: CHO, read-out: % Emax cf. ACh (M4), CHO cells stably expressing human M4
T2 construct: expressed in transfected cells
T2 sequence (P08173 1-479): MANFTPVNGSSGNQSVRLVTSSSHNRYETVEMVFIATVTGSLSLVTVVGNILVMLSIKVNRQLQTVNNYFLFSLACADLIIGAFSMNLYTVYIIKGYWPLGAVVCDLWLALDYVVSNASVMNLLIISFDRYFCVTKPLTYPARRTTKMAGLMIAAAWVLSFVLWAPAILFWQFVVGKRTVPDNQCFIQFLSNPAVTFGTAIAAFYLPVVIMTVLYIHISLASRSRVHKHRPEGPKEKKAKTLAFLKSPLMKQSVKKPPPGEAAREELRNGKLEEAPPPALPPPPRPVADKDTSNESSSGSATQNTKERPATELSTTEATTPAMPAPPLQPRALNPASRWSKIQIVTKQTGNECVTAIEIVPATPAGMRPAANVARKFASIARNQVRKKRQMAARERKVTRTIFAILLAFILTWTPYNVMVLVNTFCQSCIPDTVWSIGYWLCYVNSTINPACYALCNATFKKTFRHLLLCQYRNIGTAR

[3] = target: T3, human muscarinic M3 receptor (Homo sapiens, UniProt P20309); assay: Alphascreen Surefire phospho-ERK1/2 functional assay, M3; format: cell-based; details: phospho-ERK1/2; for EC50: CHO cells stably expressing human M3, read-out: pEC50 M3 (converted); for Emax: CHO, read-out: % Emax cf. ACh (M3), CHO cells stably expressing human M3, relative to ACh
T3 construct: expressed in transfected cells
T3 sequence (P20309 whole entry): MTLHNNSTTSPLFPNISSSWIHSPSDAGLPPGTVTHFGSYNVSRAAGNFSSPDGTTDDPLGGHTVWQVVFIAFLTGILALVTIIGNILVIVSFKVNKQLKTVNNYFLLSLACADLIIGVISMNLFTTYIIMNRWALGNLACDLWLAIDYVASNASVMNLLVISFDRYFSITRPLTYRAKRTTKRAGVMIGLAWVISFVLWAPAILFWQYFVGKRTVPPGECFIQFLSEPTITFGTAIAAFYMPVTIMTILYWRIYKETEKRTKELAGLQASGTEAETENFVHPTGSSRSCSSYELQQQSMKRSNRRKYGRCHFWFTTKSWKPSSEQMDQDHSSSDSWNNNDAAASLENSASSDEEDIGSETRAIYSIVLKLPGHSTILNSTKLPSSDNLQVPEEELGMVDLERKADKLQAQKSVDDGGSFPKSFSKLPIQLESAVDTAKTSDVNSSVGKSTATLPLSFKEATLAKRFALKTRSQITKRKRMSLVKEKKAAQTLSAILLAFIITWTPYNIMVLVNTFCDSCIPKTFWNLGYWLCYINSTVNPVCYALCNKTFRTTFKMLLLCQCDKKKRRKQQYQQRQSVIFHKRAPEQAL
Experimental: (§1) ERK1/2 phosphorylation is a downstream consequence of both Gq/11 and Gi/o protein coupled receptor activation, making it highly suitable for the assessment of M1, M3 (Gq/11 coupled) and M2, M4 receptors (Gi/o coupled), rather than using different assay formats for different receptor subtypes. CHO cells stably expressing the human muscarinic M1, M2, M3 or M4 receptor were plated (25K/well) onto 96-well tissue culture plates in MEM-alpha+10% dialysed FBS. Once adhered, cells were serum-starved overnight. Agonist stimulation was performed by the addition of 5 μL agonist to the cells for 5 min (37° C.). Media was removed and 50 μL of lysis buffer added. After 15 min, a 4 μL sample was transferred to 384-well plate and 7 μL of detection mixture added.

[4] = target: T4, human muscarinic M2 receptor (Homo sapiens, UniProt P08172); assay: Alphascreen Surefire phospho-ERK1/2 functional assay, M2; format: cell-based; details: for EC50: CHO cells stably expressing human M2, read-out: pEC50 M2 (converted); for Emax: CHO, read-out: % Emax cf. ACh (M2), CHO cells stably expressing human M2, relative to ACh
T4 sequence (P08172 1-466): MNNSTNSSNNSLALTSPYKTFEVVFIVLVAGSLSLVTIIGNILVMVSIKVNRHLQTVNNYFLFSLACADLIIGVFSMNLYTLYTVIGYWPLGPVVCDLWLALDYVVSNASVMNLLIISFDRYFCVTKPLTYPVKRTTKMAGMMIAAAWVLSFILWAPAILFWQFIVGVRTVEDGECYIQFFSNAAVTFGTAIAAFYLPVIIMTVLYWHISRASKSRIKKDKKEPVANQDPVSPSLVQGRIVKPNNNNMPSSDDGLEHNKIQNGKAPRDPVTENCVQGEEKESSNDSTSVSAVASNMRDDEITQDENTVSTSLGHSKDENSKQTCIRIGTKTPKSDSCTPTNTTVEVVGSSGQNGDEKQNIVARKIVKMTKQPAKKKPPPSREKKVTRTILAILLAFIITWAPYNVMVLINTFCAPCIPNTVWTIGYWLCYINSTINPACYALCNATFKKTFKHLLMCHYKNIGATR
Experimental: as §1

rats = assay: d-amphetamine-induced hyperactivity in rats; format: in vivo, rat; details: positive control dose, previously observed
Experimental: Effect of a Novel Test Compound and Xanomeline on d-Amphetamine-Induced Hyperactivity in Rats
The aim of the study is to examine the effect of a novel test compound on d-amphetamine induced hyperactivity in rats. Schizophrenia is a complex multifactorial disease that cannot be fully represented by a single experimental procedure. Antipsychotic-like behaviour was assessed in rats by the inhibition of hyperactivity (or hyperlocomotion) elicited by d-amphetamine. This procedure is sensitive to clinically relevant dopamine receptor antagonists and is therefore considered suitable for comparing muscarinic agonists that influence dopaminergic signalling. […] Statistical analysis typically involved three-way analysis of covariance or robust regression with treatment, day and rack as factors and activity during the 30 minutes prior to treatment as a covariate, followed by appropriate multiple comparison tests. A P value of <0.05 was considered statistically significant and is marked accordingly in all subsequent figures.

[5] = CHO cells stably expressing human M4, phospho-ERK1/2, read-out: pEC50 M4 (converted)
[6] = phospho-ERK1/2, relative to ACh

EC50 [1]	Emax [1]	EC50 [2, 5]	Emax [2, 6]	EC50 [3]	Emax [3]	EC50 [4]	Emax [4]	% Emax cf. ACh (M1) [1]	% Emax cf. ACh (M4) ([2]; CHO cells stably expressing human M4, phospho-ERK1/2, relative to ACh)	% Emax cf. ACh (M1) ([1]; listed as 2-21 isomer 2)	SMILES	EC50 ([2]; pEC50 M4)	d-amphetamine induced hyperactivity (rats)
> 20000 nM	62%	63.1 nM	111%	> 20000 nM	56%	> 20000 nM	20%				CCOC(=O)N1CCC2(CC(N3CCC(N(CC)Cc4cnco4)CC3)C2)C1 (single isomer, unassigned) [2-60 Isomer 2]		
1000 nM	85%	20 nM	106%	> 20000 nM	11%	> 20000 nM	12%				CCOC(=O)N1CCC2(CC(N3CCC(N(Cc4cnco4)CC(F)(F)F)CC3)C2)C1 (single isomer, unassigned) [2-62 Isomer 2]		
2510 nM	46%	31.6 nM	128%	> 20000 nM	4%	> 20000 nM	2%				CCOC(=O)N1CCC2(CC(N3CCC(C(C)(C)N(CC)C(C)=O)CC3)C2)C1 (single isomer, unassigned) [2-64 Isomer 2]		
1000 nM		200 nM		> 20000 nM	15%	> 20000 nM	15%	43%	45%		CCOC(=O)N1CCC2(CC(N3CCC(C(C)n4cccn4)CC3)C2)C1 (single isomer, unassigned) [2-65 Isomer 2a]		
> 20000 nM	59%	39.8 nM	76%	> 20000 nM	8%	> 20000 nM	17%				CCOC(=O)N1CCC2(CC(N3CCC(OC(C)c4ccccc4)CC3)C2)C1 (single isomer, unassigned) [2-66 Isomer 2]		
> 20000 nM	19%	31.6 nM	55%	> 20000 nM	2%	> 20000 nM	2%				CCOC(=O)N1CCC2(CC(N3CCC(SCc4ccccc4)CC3)C2)C1 (single isomer, unassigned) [2-67 Isomer 2]		
316 nM	42%	31.6 nM	94%	> 20000 nM	37%	> 20000 nM	29%				CCN(C(C)=O)C1CCN(C2CCC3(C2)CN(C(=O)OC)C3)CC1 (single isomer, unassigned) [3-2 Isomer 2]		
> 20000 nM	18%	3.98 nM	93%	> 20000 nM	21%	> 20000 nM	3%				CCOC(=O)N1CC2(CCC(N3CCC(N(CC)C(C)=O)CC3)C2)C1 (single isomer, unassigned) [3-3 Isomer 2]		
63.1 nM		158 nM		> 20000 nM	22%	> 20000 nM	18%			89%	CCOC(=O)N1CCC2(CC(N3CCC(N(CC4(C)CCC4)C(C)=O)CC3)C2)C1 (single isomer, unassigned) [Example 2-21 Isomer 2]		
											CCCCCCOc1nsnc1C1=CCCN(C)C1 [xanomeline]		significantly reduce

SMILES	EC50 [1]	Emax [1]	EC50 [2, 5]	Emax [2, 6]	EC50 [3]	Emax [3]	EC50 [4]	Emax [4]	% Emax cf. ACh (M1) [1]	% Emax cf. ACh (M4) ([2]; CHO cells stably expressing human M4, phospho-ERK1/2, relative to ACh)	% Emax cf. ACh (M1) ([1]; listed as 2-21 isomer 2)	EC50 ([2]; pEC50 M4)	d-amphetamine induced hyperactivity (rats)
CCOC(=O)N1CCC2(CC(N3CCC(N(CCF)Cc4cnco4)CC3)C2)C1 (single isomer, unassigned) [2-61 Isomer 2]	> 20000 nM	21%		101%	> 20000 nM	65%	> 20000 nM	52%				39.8 nM	
